According to PubChem BioAssay (NCI):
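Exposure lasted 48 hours, with cells grown in 96-well plates and compounds tested at five concentrations. GI50 marks 50% less growth. The concentration for full growth arrest is given as TGI.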

What was measured:
Assay in all cases: NCI tumour cell line growth inhibition, 48 h
CAKI-1 renal = test system: CAKI-1 renal
DU-145 prostate = test system: DU-145 prostate
LOX IMVI melanoma = test system: LOX IMVI melanoma
MOLT-4 leukemia = test system: MOLT-4 leukemia
HCT-116 colon = test system: HCT-116 colon
ACHN renal = test system: ACHN renal
MDA-MB-231 breast = test system: MDA-MB-231 breast
HOP-62 NSCLC = test system: HOP-62 NSCLC
SN12C renal = test system: SN12C renal
NCI-H23 lung = test system: NCI-H23 lung

| Compound | GI50 (CAKI-1 renal) [µM] | TGI (CAKI-1 renal) [µM] | GI50 (DU-145 prostate) [µM] | TGI (DU-145 prostate) [µM] | GI50 (LOX IMVI melanoma) [µM] | TGI (LOX IMVI melanoma) [µM] | GI50 (MOLT-4 leukemia) [µM] | TGI (MOLT-4 leukemia) [µM] | GI50 (HCT-116 colon) [µM] | TGI (HCT-116 colon) [µM] | GI50 (ACHN renal) [µM] | TGI (ACHN renal) [µM] | GI50 (MDA-MB-231 breast) [µM] | TGI (MDA-MB-231 breast) [µM] | GI50 (HOP-62 NSCLC) [µM] | TGI (HOP-62 NSCLC) [µM] | GI50 (SN12C renal) [µM] | TGI (SN12C renal) [µM] | TGI (NCI-H23 lung) [µM] | GI50 (NCI-H23 lung) [µM] |
| --- | --- | --- | --- | --- | --- | --- | --- | --- | --- | --- | --- | --- | --- | --- | --- | --- | --- | --- | --- | --- |
| COc1ccc(C(=O)c2sc3nc(-c4cccs4)ccc3c2N)cc1OC | 5.29 | > 100 | 16 | > 100 | 6.73 | > 100 | 3.78 | 18 | 5.06 | > 100 | 9.26 | > 100 | 2.96 | 29.6 | 17.6 | > 100 | 11 | > 100 |  |  |
| CCOC(=O)Nc1cc2ccccc2c(N=Nc2ccccc2)c1O |  | > 100 |  | > 100 |  |  |  | > 100 |  | > 100 |  | > 100 |  | > 100 |  | > 100 |  | > 100 | > 100 |  |
| CCCCOC1OC(COC(=O)C(C)C)C(OC(=O)C(C)C)C(O)C1OC1OC(C)C(OC(=O)CCC)C(OC(=O)C(C)C)C1O (centres undefined) | 17.4 | 31.1 | 16.3 | 29.8 | 13.3 | 26.1 | 1.71 | 4.12 | 6.41 | 18.4 | 14.9 | 28.1 | 10.1 | 21.7 | 14.3 | 27.4 |  |  | 27 | 14 |
| Cc1ccc(NC(=O)CCc2n[nH]c(=S)o2)cc1 |  | > 100 |  |  |  | > 100 |  | > 100 |  | > 100 |  | > 100 |  |  |  | > 100 |  | > 100 | > 100 |  |
| COc1cnc2c(c1)C(=O)c1c-2n(CCCN2CCC(O)CC2)c(=O)c2cc(Cl)ccc12 | 0.0729 | 15.1 | 0.279 | 1.71 | 0.0758 | 1.46 | 0.0745 | 5.34 | 0.0987 | 2.18 | 0.0903 | 1.5 | 1.51 | 3.12 | 0.0942 | 17.1 |  |  | 1.74 | 0.248 |
| N#CC1=C(O)NC(O)=C(C#N)C1c1ccc(C2C(C#N)=C(O)NC(O)=C2C#N)cc1 |  | > 100 |  |  |  | > 100 |  | > 100 |  | > 100 |  | > 100 |  |  |  | > 100 |  | > 100 | > 100 |  |
| Cc1cc(Cl)ccc1C(=O)c1ccc2ccccc2c1C(=O)O |  | > 100 |  | > 100 |  |  |  | > 100 |  | > 100 |  | > 100 |  | > 100 |  |  |  |  | > 100 |  |
| CC(=O)/C=C/c1ccc(OCc2ccc(Cl)cc2)cc1 |  |  | 636 | > 1000 | 343 | > 1000 | 240 | > 1000 | > 1000 | > 1000 | > 1000 | > 1000 | 629 | > 1000 | > 1000 | > 1000 | 893 | > 1000 | > 1000 | 720 |
